# Experimental data reported in patent US10526311B2 (ASTEX THERAPEUTICS LIMITED, priority 2015, dated 2020).
# pIC50: −log10 of the molar value. Where a name gives a salt, the structure may show the parent alone.
# System: SJSA-1
# Assay: Protocol B: SJSA-1 CellTiter-Glo cell viability
# Settings: Homo sapiens, SJSA-1, 72 h, read-out: SJSA1 IC50 (Protocol B), SJSA-1 cells, CellTiter-Glo, 72 hrs
row,Compound,pIC50
1,"CN1CCN(CC(C)(O)c2cc(F)c3c(c2)C(=O)N(Cc2ccc(C#N)cn2)[C@@]3(OCC2(C#N)CC2)c2ccc(Cl)cc2)CC1 (stereo partly drawn) [Example 279, 6-{[(1R)-1-(4-chlorophenyl)-1-[(1-cyanocyclopropyl)methoxy]-7-fluoro-5-[2-hydroxy-1-(4-methylpiperazin-1-yl)propan-2-yl]-3-oxo-2,3-dihydro-1H-isoindol-2-yl]methyl}pyridine-3-carbonitrile]",6.24
2,"CO[C@]1(c2ccc(Cl)cc2)c2c(F)cc(C(C)(O)c3cnn(CCN(C)C)c3)cc2C(=O)N1Cc1ccc(Cl)cn1 (single isomer, unassigned) [Example 191]",5.60
3,"CC(O)(c1cc(F)c2c(c1)C(=O)N(Cc1ccc(C#N)cn1)[C@@]2(OCC1(C#N)CC1)c1ccc(Cl)cc1)C1CCOCC1 (single isomer, unassigned) [Example 282]",7.21
4,"CO[C@]1(c2ccc(Cl)cc2)c2c(F)cc(C(C)(O)C3CN(C(=O)CO)C3)cc2C(=O)N1Cc1ccc(Cl)cn1 (single isomer, unassigned) [Example 391]",6.18
5,"CC(O)(c1cc(F)c2c(c1)C(=O)N(Cc1ccc(Cl)cn1)[C@@]2(OCC1(O)CC1)c1ccc(Cl)cc1)c1ncccn1 (stereo partly drawn) [Example 396, (3R)-3-(4-chlorophenyl)-2-[(5-chloropyridin-2-yl)methyl]-4-fluoro-6-[1-hydroxy-1-(pyrimidin-2-yl)ethyl]-3-[(1-hydroxycyclopropyl)methoxy]-2,3-dihydro-1H-isoindol-1-one]",6.55
6,"Cn1cc(C(C)(O)c2cc(F)c3c(c2)C(=O)N(Cc2ncc(Cl)cn2)[C@@]3(OCC2(CO)CC2)c2ccc(Cl)cc2)cn1 (stereo partly drawn) [Example 349, (3R)-3-(4-chlorophenyl)-2-[(5-chloropyrimidin-2-yl)methyl]-4-fluoro-6-[1-hydroxy-1-(1-methyl-1H-pyrazol-4-yl)ethyl]-3-{[1-(hydroxymethyl)cyclopropyl]methoxy}-2,3-dihydro-1H-isoindol-1-one]",7.55
7,"CC(O)(c1cc(F)c2c(c1)C(=O)N(Cc1ncc(Cl)cn1)[C@@]2(OCC1(C(N)=O)CC1)c1ccc(Cl)cc1)C1CCOCC1 (single isomer, unassigned) [Example 284]",7.77
8,"Cn1cc(C(C)(O)c2cc(F)c3c(c2)C(=O)N(Cc2ccc(C#N)cn2)[C@@]3(O[C@H]2C[C@@H](O)C2)c2ccc(Cl)cc2)cn1 (stereo partly drawn) [Example 355, 6-{[1-(4-chlorophenyl)-7-fluoro-5-[1-hydroxy-1-(1-methyl-1H-pyrazol-4-yl)ethyl]-3-oxo-1-[cis-3-hydroxycyclobutoxy]-2,3-dihydro-1H-isoindol-2-yl]methyl}pyridine-3-carbonitrile]",5.33
9,"Cc1c[nH]c(C(C)(O)c2cc(F)c3c(c2)C(=O)N(Cc2ccc(Cl)cn2)[C@@]3(OCC2(O)CC2)c2ccc(Cl)cc2)n1 (mixture of isomers) [Example 332, (3R)-3-(4-chlorophenyl)-2-[(5-chloropyridin-2-yl)methyl]-4-fluoro-6-[1-hydroxy-1-(4-methyl-1H-imidazol-2-yl)ethyl]-3-[(1-hydroxycyclopropyl)methoxy]-2,3-dihydro-1H-isoindol-1-one]",5.59

# Same assay, conditions: Homo sapiens, SJSA-1, 72 h, read-out: SJSA1 IC50 (μM) (Protocol B), SJSA-1, Protocol B (CellTiter-Glo), 72 hrs
row,IC50 [µM],Compound
1,0.64,"CC[C@@](O)(c1cc(F)c2c(c1)C(=O)N(Cc1ncc(Cl)cc1C(=O)O)[C@@]2(OC)c1ccc(Cl)cc1)C1(F)CCOCC1 [Example 514, 5-chloro-2-{[(1R)-1-(4-chlorophenyl)-7-fluoro-5-[(1R)-1-(4-fluorooxan-4-yl)-1-hydroxypropyl]-1-methoxy-3-oxo-2,3-dihydro-1H-isoindol-2-yl]methyl}pyridine-3-carboxylic acid (tris(hydroxymethyl)aminomethane salt)]"
2,0.96,"CCC(O)(c1cc(F)c2c(c1)C(=O)N(Cc1ncc(C#N)cn1)[C@@]2(O[C@H]1CCOC1)c1ccc(Cl)cc1)C1(F)CCNCC1 (single isomer, unassigned) [Example 547]"
3,0.69,"CCC(O)(c1cc(F)c2c(c1)C(=O)N(Cc1ncc(Cl)cn1)[C@@]2(OC[C@@H](C)O)c1ccc(Cl)cc1)C1(F)CCNCC1 (single isomer, unassigned) [Example 543]"
4,0.014,"[2H]C([2H])(O)C([2H])([2H])O[C@]1(c2ccc(Cl)cc2)c2c(F)cc(C(O)(CC)C3(F)CCN(C)CC3)cc2C(=O)N1Cc1ncc(Cl)cn1 (stereo partly drawn) [Example 580, (3R)-3-(4-chlorophenyl)-2-[(5-chloropyrimidin-2-yl)methyl]-4-fluoro-6-[1-(4-fluoro-1-methylpiperidin-4-yl)-1-hydroxypropyl]-3-[2-hydroxy(1,1,2,2-tetradeutero)ethoxy]-2,3-dihydro-1H-isoindol-1-one]"
5,0.094,"CCC(O)(c1cc(F)c2c(c1)C(=O)N(Cc1ncc(Cl)cn1)[C@@]2(OCC1(C#N)CC1)c1ccc(Cl)cc1)C1(F)CCNCC1 (single isomer, unassigned) [Example 545]"
6,0.27,"CCC(O)(c1cc(F)c2c(c1)C(=O)N(Cc1ccc(Cl)cn1)[C@@]2(OC[C@@H](C)O)c1ccc(Cl)cc1)C1(F)CCNCC1 (single isomer, unassigned) [Example 549]"
7,0.7,"CCC(O)(c1cc(F)c2c(c1)C(=O)N(Cc1ccc(C#N)cn1)[C@@]2(O[C@H]1CCOC1)c1ccc(Cl)cc1)C1(F)CCNCC1 (single isomer, unassigned) [Example 546]"
8,0.02,"CC[C@@](O)(c1cc(F)c2c(c1)C(=O)N(Cc1ncc(C#N)cn1)[C@@]2(O[C@H]1CCOC1)c1ccc(Cl)cc1)C1(F)CCOCC1 [Example 507, 2-{[(1R)-1-(4-chlorophenyl)-7-fluoro-5-[(1R)-1-(4-fluorooxan-4-yl)-1-hydroxypropyl]-3-oxo-1-[(3S)-oxolan-3-yloxy]-2,3-dihydro-1H-isoindol-2-yl]methyl}pyrimidine-5-carbonitrile]"
9,0.39,"CCCC(O)(c1cc(F)c2c(c1)C(=O)N(Cc1ccc(C#N)cn1)[C@@]2(O[C@H]1CCOC1)c1ccc(Cl)cc1)c1cn(C)cn1 (single isomer, unassigned) [Example 472]"
10,0.86,"CCC(O)(c1cc(F)c2c(c1)C(=O)N(Cc1ncc(Cl)cn1)[C@@]2(O[C@H]1CCOC1)c1ccc(Cl)cc1)C1CCNCC1 (single isomer, unassigned) [Example 448]"
11,0.053,"CCC(O)(c1cc(F)c2c(c1)C(=O)N(Cc1ccc(C#N)cn1)[C@@]2(OCCO)c1ccc(Cl)cc1)C1(F)CCOCC1 (single isomer, unassigned) [Example 499]"

row,Compound,IC50 [µM]
1,"CCC(O)(c1cc(F)c2c(c1)C(=O)N(Cc1ccc(C#N)cn1)[C@@]2(OCC1(F)COC1)c1ccc(Cl)cc1)c1cn(C)cn1 (single isomer, unassigned) [Example 435]",0.015
2,"CC[C@](O)(c1cc(F)c2c(c1)C(=O)N(Cc1ncc(C#N)cn1)[C@@]2(O[C@H]1C[C@@H](O)C1)c1ccc(Cl)cc1)C1(F)CCOCC1 [Example 506, 2-{[(1R)-1-(4-chlorophenyl)-7-fluoro-5-[(1S)-1-(4-fluorooxan-4-yl)-1-hydroxypropyl]-3-oxo-1-[cis-3-hydroxycyclobutoxy]-2,3-dihydro-1H-isoindol-2-yl]methyl}pyrimidine-5-carbonitrile]",3.4
3,"Cn1cnc(C(C)(O)c2cc(F)c3c(c2)C(=O)N(Cc2ncc(C#N)cn2)[C@@]3(OCC2(F)COC2)c2ccc(Cl)cc2)c1 (single isomer, unassigned) [Example 468]",0.48
4,"[2H]C([2H])(O)C1(C([2H])([2H])O[C@]2(c3ccc(Cl)cc3)c3c(F)cc(C(C)(O)C4(F)CCOCC4)cc3C(=O)N2Cc2ncc(Cl)cn2)CC1 (single isomer, unassigned) [Example 447]",0.011

# Same assay, conditions: at 10 μM
row,Compound,SJSA1 (Protocol B) % at concentration [% at 10]
1,"CC(O)(c1cc(F)c2c(c1)C(=O)N(Cc1ccc(Cl)cn1)[C@@]2(OCCO)c1ccc(Cl)cc1)C1CCS(=O)(=O)CC1 (single isomer, unassigned) [Example 314]",66

# Same assay, conditions: read-out: SJSA1 IC50 (Protocol B); SJSA-1 cells, CellTiter-Glo, 72 hrs
row,Compound,pIC50
1,"Cc1nnc(C(C)(O)c2cc(F)c3c(c2)C(=O)N(Cc2ccc(Cl)cn2)[C@@]3(OCC2(O)CC2)c2ccc(Cl)cc2)o1 (stereo partly drawn) [Example 186, (3R)-3-(4-Chlorophenyl)-2-[(5-chloropyridin-2-yl)methyl]-4-fluoro-6-[1-hydroxy-1-(5-methyl-1,3,4-oxadiazol-2-yl)ethyl]-3-[(1-hydroxycyclopropyl)methoxy]-2,3-dihydro-1H-isoindol-1-one]",6.38
2,"CO[C@]1(c2ccc(Cl)cc2)c2c(F)cc(C(C)(O)C3CN(C(C)=O)C3)cc2C(=O)N1Cc1ccc(Cl)cn1 (single isomer, unassigned) [Example 389]",5.38
3,"CO[C@]1(c2ccc(Cl)cc2)c2c(F)cc(C(C)(O)c3nccs3)cc2C(=O)N1Cc1ccc(Cl)cn1 (stereo partly drawn) [Example 166, (3R)-3-(4-Chlorophenyl)-2-[(5-chloropyridin-2-yl)methyl]-4-fluoro-6-[1-hydroxy-1-(1,3-thiazol-2-yl)ethyl]-3-methoxy-2,3-dihydro-1H-isoindol-1-one]",5.42
4,"[2H]C([2H])(O)C1(C([2H])([2H])O[C@]2(c3ccc(Cl)cc3)c3c(F)cc(C(C)(O)c4cnn(C)c4)cc3C(=O)N2Cc2ccc(C#N)cn2)CC1 (single isomer, unassigned) [Example 353]",6.57
5,"CO[C@]1(c2ccc(Cl)cc2)c2c(F)cc(C(C)(O)c3ccn(C)n3)cc2C(=O)N1Cc1ccc(Cl)cn1 (stereo partly drawn) [Example 190, (3R)-3-(4-Chlorophenyl)-2-[(5-chloropyridin-2-yl)methyl]-4-fluoro-6-[1-hydroxy-1-(1-methyl-1H-pyrazol-3-yl)ethyl]-3-methoxy-2,3-dihydro-1H-isoindol-1-one]",5.30

# Same assay, conditions: read-out: SJSA1 IC50 (μM) (Protocol B); SJSA-1, Protocol B (CellTiter-Glo), 72 hrs
row,Compound,IC50 [µM]
1,"[2H]C([2H])(O)C1(C([2H])([2H])O[C@]2(c3ccc(Cl)cc3)c3c(F)cc(C(O)(CC)c4cn(C)cn4)cc3C(=O)N2Cc2ccc(C#N)cn2)CC1 (single isomer, unassigned) [Example 440]",1.9
2,"CCC(O)(c1cc(F)c2c(c1)C(=O)N(Cc1ncc(C#N)cn1)[C@@]2(OCC1(F)COC1)c1ccc(Cl)cc1)c1cn(C)cn1 (single isomer, unassigned) [Example 470]",0.1
